Experimental data published in patent US9326955B2, “Combination pharmaceuticals and methods thereof using proteinacious channels as treatments for medical conditions” (Loyola University Chicago, priority 2008, dated 2016).
Entries after “also recorded” stand apart in the source; their conditions may differ. Where two headings read alike, the source gives them in different places.

Key:
[1] = test system: rat bronchioles in precision-cut lung slices (PCLS); test: Airway constriction/relaxation in rat precision-cut lung slices (PCLS); conditions: for bronchorelaxant action when XE991 is included: with XE991 10 μM
Experimental: Another investigation was performed to investigate the ability of KCNQ channel activators to attenuate MeCh-induced concentration-dependent constriction of rat bronchioles in precision-cut lung slices (PCLS). The PCLS were prepared using methods described by Brueggemann et al., “KCNQ (Kv7) potassium channel activators as bronchodilators: combination with a β2-adrenergic agonist enhances relaxation of rat airways,” Am J Physiol Lung Cell Mol Physiol (in press). PCLS were superfused with increasing concentrations of MeCh in the range from 100 nM to 1 μM. Each concentration was applied for thirty minutes, followed by a forty-five minute washout prior to application of the next MeCh concentration (FIG. 12A,B). […] Percent of airway constriction, relative to the cross-sectional area measured before the initial MeCh treatment, was calculated for each MeCh concentration and plotted against concentration of MeCh.
Bronchorelaxant effects were further assessed by measuring the extent of bronchoconstriction when MeCh was applied in the absence or presence of different structurally unrelated KCNQ channel activators (or vehicle).
FIG. 13C is a representative time course of changes in lumenal area of a small airway in rat PCLS on application of 230 nM MeCh (thirty minutes) followed by application of 230 nM MeCh in the presence of 10 nM formoterol (FF, thirty minutes). Dashed vertical lines marked “max” and “final” indicate 1 minute time intervals where the maximum or final relaxation was measured relative to the MeCh-induced constriction (measured during the last minute of MeCh alone). FIG. 13D is a representative time course of changes in lumenal area of a small airway treated as in panel C, except that 10 μM retigabine was included with the formoterol treatment (“FF+R,” thirty minutes).
The amount of desensitization for each concentration of formoterol in the absence and presence of 10 μM retigabine was estimated by subtraction of final relaxation (after thirty-minute treatment) from maximal relaxation.
To further investigate the desensitization to formoterol in rat PCLS, formoterol (10 nM) was applied twice, at a 90 minute interval, to airways constricted repetitively with 230 nM MeCh.

[2] = test system: KCNQ channels; test: Patch-clamp of KCNQ currents in rat airway myocytes (ASMCs); format: cell-based
Experimental: An investigation relating to these aspects of the invention was conducted to determine whether KCNQ (Kv7) K^+ channels are expressed and functional in rat airway myocytes. To accomplish this, a combination of real time polymerase chain reaction (RT-PCR) and patch-clamp electrophysiology was used. Isolation of rat ASMCs from bronchial strips for the patch-clamp electrophysiology as well as RNA isolation from rat trachea for the RT-PCR were performed using methods as described in Brueggemann et al., “KCNQ (Kv7) potassium channel activators as bronchodilators: combination with a β2-adrenergic agonist enhances relaxation of rat airways,” Am J Physiol Lung Cell Mol Physiol (in press), incorporated herein by reference.
Therefore K^+ currents in enzymatically dispersed rat airway myocytes were measured using patch-clamp electrophysiology.
After 10 minutes of MeCh treatment, the time course recording was interrupted for 10 minutes for measurement of steady-state I-V relationship (time break indicated by vertical gray lines). Then, after an additional one minute recording at −20 mV holding voltage, retigabine (10 μM) was applied in the presence of MeCh for 5 minutes. The time course recording was interrupted again for ten minutes for measurement of steady-state I-V relationship and, after an additional one minute time course recording, XE991 (1 μM) was applied in the presence of MeCh and retigabine for ten minutes.
The investigation examined whether the bronchorelaxant effects of long-acting β2-adrenergic receptor agonist, formoterol, were mediated via activation of KCNQ channels in rat airway myocytes. […] The time course recording was interrupted for 10 minutes for measurement of steady-state I-V relationship (time break indicated by vertical gray lines). After an additional 5 minutes recording, retigabine (10 μM) was applied in the continued presence of formoterol. The time course recording was interrupted again for 10 minutes for recording of steady-state I-V curves, and, after an additional 5 minutes recording, XE991 (1 μM) was applied in the presence of retigabine.

[3] = test system: human PCLS; test: Airway relaxation in human PCLS from an asthmatic lung; conditions: 30 pM alone, thirty-minute treatment (H1+F)
Excerpt: FIG. 15A is a representative recording of airway area from a PCLS derived from an asthmatic human lung.

[4] = test system: Kv7 channels; test: Perforated patch clamp of Kv7 currents in freshly isolated guinea pig ASMCs; format: cell-based
Experimental: Another investigation relating to this aspect of the invention was directed to investigating Kv7 currents in freshly dissociated guinea pig ASMCs. […] 197-218 (1992), ASMCs were isolated from guinea pig bronchioles by enzymatic digestion and whole cell perforated patch clamp electrophysiology was used to record Kv7 currents. Kv7 currents were recorded in isolation from other ionic currents by including 100 μM gadolinium chloride in the external solution and applying relatively long (about five second) voltage steps, during which many other classes of channels inactivate.

[5] = test system: vascular Kv7 channels; test: Electrophysiology of Kv7 currents in vascular smooth muscle cells; format: cell-based, rat and human; conditions: for effect on vascular Kv7 channels: vascular smooth muscle cells
Experimental: The scope of the present invention further encompasses the tools used to measure vascular Kv7 channel activities and/or functional contributions of these channels in vascular smooth muscle cells. […] For example, flupirtine is a known Kv7 channel activator used to treat pain; plasma concentrations achieved clinically can be as high as about 12 μM with a 100 mg dose (Abrams et al., “Pharmacokinetics of flupirtine in elderly volunteers and in patients with moderate renal impairment,” Postgraduate Medical Journal, 64: 361-363 (1988)) and doses up to about 600 mg are routinely given to treat chronic pain. […] Further indications to support such predictions may be obtained by measuring the effects of drugs on constriction/dilation of pressurized arteries.

[6] = randomized clinical trials / clinical studies; cited from earlier work
[7] = biological target: vascular L-type Ca^2+ channels (Homo sapiens, UniProt Q13936); conditions: vascular smooth muscle cells
Sequence of vascular L-type Ca^2+ channels (Q13936 whole entry): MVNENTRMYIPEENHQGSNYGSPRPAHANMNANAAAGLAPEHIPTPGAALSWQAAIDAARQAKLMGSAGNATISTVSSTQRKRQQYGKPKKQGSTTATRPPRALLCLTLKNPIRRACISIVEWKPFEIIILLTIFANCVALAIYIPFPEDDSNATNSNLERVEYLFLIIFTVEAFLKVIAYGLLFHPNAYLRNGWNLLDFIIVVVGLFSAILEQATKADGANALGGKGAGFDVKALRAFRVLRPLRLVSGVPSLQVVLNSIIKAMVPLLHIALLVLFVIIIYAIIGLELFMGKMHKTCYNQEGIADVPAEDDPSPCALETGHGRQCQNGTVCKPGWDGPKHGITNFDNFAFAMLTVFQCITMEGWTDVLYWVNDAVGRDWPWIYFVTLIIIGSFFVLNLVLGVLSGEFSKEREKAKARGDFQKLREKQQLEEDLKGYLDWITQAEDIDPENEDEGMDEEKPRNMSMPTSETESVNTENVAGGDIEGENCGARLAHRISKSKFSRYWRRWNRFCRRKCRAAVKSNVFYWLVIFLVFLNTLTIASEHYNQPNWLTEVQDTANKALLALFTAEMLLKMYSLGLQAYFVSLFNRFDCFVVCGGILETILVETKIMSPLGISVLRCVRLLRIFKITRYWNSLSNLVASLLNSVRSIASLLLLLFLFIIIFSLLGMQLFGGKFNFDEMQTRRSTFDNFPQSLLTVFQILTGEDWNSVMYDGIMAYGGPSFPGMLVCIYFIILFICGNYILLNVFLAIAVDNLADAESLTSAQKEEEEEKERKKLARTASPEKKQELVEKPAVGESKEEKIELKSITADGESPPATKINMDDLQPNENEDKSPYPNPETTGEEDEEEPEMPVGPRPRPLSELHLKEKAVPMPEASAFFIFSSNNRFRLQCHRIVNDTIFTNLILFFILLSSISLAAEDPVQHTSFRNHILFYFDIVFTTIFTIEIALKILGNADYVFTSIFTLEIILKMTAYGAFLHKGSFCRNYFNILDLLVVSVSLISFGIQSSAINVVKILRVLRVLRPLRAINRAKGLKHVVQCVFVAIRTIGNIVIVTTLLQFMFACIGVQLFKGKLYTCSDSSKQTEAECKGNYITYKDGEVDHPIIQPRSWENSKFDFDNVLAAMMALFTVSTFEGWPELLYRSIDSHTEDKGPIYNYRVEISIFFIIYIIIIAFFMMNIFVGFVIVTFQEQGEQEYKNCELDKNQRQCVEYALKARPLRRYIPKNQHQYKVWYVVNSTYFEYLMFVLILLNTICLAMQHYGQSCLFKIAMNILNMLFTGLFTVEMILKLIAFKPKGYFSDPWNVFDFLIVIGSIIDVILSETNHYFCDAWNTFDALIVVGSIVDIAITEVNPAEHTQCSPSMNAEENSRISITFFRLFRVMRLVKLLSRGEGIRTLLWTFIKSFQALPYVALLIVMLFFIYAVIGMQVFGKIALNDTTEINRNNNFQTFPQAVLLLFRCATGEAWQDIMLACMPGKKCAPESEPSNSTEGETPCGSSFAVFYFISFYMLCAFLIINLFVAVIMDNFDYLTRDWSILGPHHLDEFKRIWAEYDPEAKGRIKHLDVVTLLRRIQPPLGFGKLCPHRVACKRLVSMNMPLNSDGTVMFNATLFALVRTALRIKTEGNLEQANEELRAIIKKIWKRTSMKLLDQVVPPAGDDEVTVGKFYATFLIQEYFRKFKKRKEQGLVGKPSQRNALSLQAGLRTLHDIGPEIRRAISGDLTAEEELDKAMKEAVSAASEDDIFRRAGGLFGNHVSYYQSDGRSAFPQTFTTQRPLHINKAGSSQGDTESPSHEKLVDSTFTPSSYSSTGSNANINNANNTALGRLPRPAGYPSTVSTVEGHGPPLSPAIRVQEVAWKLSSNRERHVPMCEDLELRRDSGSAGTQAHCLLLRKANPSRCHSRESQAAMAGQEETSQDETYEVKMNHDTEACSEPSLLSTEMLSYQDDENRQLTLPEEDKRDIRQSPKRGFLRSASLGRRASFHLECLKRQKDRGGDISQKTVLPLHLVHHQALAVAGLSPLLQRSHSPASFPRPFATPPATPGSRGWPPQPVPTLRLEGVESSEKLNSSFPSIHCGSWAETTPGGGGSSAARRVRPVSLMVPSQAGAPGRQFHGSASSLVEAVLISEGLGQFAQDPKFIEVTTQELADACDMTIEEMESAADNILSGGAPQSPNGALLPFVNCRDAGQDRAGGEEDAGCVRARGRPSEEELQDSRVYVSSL
Sequence of vascular L-type Ca^2+ channels (P54284 whole entry partner): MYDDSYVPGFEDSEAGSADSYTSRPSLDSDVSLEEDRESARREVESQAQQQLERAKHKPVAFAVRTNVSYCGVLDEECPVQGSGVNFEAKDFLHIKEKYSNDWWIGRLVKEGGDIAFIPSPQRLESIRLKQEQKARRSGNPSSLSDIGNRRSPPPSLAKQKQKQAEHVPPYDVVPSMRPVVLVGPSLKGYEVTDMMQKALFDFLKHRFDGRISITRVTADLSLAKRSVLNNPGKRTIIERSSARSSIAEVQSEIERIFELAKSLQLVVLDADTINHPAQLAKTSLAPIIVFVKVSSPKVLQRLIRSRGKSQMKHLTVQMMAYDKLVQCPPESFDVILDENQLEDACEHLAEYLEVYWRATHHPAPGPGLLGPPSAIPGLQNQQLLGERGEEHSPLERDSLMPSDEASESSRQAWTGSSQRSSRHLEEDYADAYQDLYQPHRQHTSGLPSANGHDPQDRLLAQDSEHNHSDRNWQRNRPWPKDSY
Sequence of vascular L-type Ca^2+ channels (P54289 25-956 partner limits assumed): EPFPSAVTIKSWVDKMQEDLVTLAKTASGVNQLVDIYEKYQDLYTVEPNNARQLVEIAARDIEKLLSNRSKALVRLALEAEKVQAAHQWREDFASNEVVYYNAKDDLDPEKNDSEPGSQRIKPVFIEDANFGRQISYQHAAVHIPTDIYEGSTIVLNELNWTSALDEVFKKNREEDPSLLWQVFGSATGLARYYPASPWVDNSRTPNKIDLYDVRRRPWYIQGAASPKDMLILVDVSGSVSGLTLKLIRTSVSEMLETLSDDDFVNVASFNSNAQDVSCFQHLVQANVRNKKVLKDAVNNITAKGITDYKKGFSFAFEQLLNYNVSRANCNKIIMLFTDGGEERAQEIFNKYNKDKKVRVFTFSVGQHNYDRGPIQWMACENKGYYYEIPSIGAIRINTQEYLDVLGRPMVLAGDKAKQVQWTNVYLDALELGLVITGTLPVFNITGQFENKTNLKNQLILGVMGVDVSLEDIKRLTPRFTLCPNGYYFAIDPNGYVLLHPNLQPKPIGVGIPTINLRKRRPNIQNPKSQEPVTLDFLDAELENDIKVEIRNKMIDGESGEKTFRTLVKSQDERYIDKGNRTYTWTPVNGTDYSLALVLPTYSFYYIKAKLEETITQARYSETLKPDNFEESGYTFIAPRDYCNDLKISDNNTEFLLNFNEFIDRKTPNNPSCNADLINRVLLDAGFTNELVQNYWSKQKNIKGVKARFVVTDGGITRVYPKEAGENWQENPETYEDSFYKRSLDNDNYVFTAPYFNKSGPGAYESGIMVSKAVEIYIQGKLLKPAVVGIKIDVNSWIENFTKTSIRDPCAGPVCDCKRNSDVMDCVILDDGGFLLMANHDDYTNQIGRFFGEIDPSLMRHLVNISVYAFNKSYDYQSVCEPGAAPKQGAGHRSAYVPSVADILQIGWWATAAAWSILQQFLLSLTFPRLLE
Sequence of vascular L-type Ca^2+ channels (P54289 957-1103 partner limits assumed): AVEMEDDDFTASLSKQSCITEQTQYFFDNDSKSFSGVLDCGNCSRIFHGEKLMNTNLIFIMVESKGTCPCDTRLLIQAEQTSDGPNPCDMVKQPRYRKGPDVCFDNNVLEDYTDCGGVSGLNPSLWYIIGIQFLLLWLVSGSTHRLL
Experimental: The activities were measured for two types of ion channels that are perhaps the most important in determining the contractile state of vascular smooth muscle cells: potassium (K^+) channels, which determine the resting membrane voltage, and voltage-sensitive calcium (Ca^2+) channels (VSCC), the activation of which allows Ca^2+ influx and vasoconstriction. […] The actions of these drugs can be assessed at the level of isolated arterial myocytes and intact pressurized arteries.

[8] = compared with celecoxib; cited from earlier work
[9] = test system: ovalbumin-sensitized guinea pigs; test: Aerosolized ovalbumin challenge with inhaled retigabine in guinea pigs; conditions: thirty-minute exposure with ovalbumin, doses up to 1 mM
Experimental: To assess the feasibility of inhalational therapy with a Kv7 channel activator, an investigation was conducted to assess the ability of retigabine to exert a therapeutic anti-bronchospastic benefit in vivo. […] This model involves a series of three intraperitoneal injections of ovalbumin (OA) or saline (as control) over a one week period, followed by a two-week sensitization period, and finally challenge with aerosolized ovalbumin.
In the investigation, two saline-control and two ovalbumin-sensitized animals were exposed to aerosolized ovalbumin on three consecutive days, but in this case the ovalbumin treatment was administered with varying doses of retigabine on consecutive days.

[10] = test system: Sprague-Dawley rats; test: Mean arterial pressure and mesenteric vascular resistance in anesthetized instrumented rats; format: in vivo, rat
[11] = 100 mg dose; cited from earlier work
[12] = 10 nM, 230 nM MeCh (FIG. 14A,C)
[13] = 10 nM, 90 minute interval (FIG. 14A,C)
[14] = formoterol 10 nM alone (FIG. 14B,D)

COc1ccc(C[C@@H](C)NC[C@H](O)c2ccc(O)c(NC=O)c2)cc1.COc1ccc(C[C@@H](C)NC[C@H](O)c2ccc(O)c(NC=O)c2)cc1.O=C(O)/C=C/C(=O)O [formoterol, formoterol fumarate]
final relaxation after thirty minutes, first application [1, 12]: 46±14% | peak relaxation, first application [1, 12]: 68±10% | final relaxation, second application [1, 13]: 32±6% | peak relaxation, second application [1, 13]: 48±8% | maximum relaxation of airways constricted with MeCh ([1]; at 1 μM, 230 nM MeCh): 72±5% | time course of relaxation response ([1]; concentrations greater than or equal to 10 nM): noticeable time-dependent decline in the relaxation response | final relaxation, acute exposure of the same slices [1, 14]: 34±6% | peak relaxation, acute exposure of the same slices [1, 14]: 59±4% | effect on KCNQ currents at −20 mV holding voltage ([2]; rat ASMCs, 10 nM): did not enhance KCNQ currents | relaxation of histamine-constricted asthmatic human airway [3]: 18%

CC(=O)OC(C)C[N+](C)(C)C (stereo not shown) [methacholine]
EC50 ([1]; rat PCLS, 100 nM to 1 μM, Hill fit, n=5, read-out: EC50 of airway constriction): 248 ± 49 nM | Hill coefficient of airway constriction ([1]; rat PCLS, n=5): 1.6±0.2 | maximal constriction ([1]; rat PCLS, n=5): 81±7% | effect on ASMC Kv7 currents ([4]; 100 nM, −20 mV): completely suppressed | reduction of KCNQ currents at −20 mV ([2]; rat ASMCs, 230 nM, n=7): 55.1±6.2%

O=C(O)Cc1ccccc1Nc1c(Cl)cccc1Cl [diclofenac]
effect on vascular Kv7 channels [5]: pronounced effects | risk of cardiovascular (CV) events [6]: significantly increased the risk of cardiovascular (CV) events

O=C1c2ccccc2C(Cc2ccncc2)(Cc2ccncc2)c2ccccc21 [XE991]
effect on ASMC Kv7 currents ([4]; celecoxib 10 μM at −20 mV): complete suppression | effect on KCNQ currents in the presence of retigabine ([2]; 1 μM, subsequent application after retigabine (with MeCh or formoterol)): completely abolished; also recorded: effectively abolished | effect on KCNQ currents at −20 mV holding voltage ([2]; rat ASMCs, 10 μM): inhibited

Cc1ccc(C)c(-c2cc(C(F)(F)F)nn2-c2ccc(S(N)(=O)=O)cc2)c1 [2,5-dimethyl-celecoxib]
effect on vascular Kv7 channels [5]: potent activator | reduction of MeCh-induced airway constriction ([1]; 10 μM, 230 nM MeCh): 23% | bronchorelaxant action when XE991 is included [1]: not significantly reduced | effect on KCNQ currents at −20 mV holding voltage ([2]; rat ASMCs, 10 μM): effective as an activator | effect on vascular L-type Ca^2+ channels [7]: inhibitor | anti-cancer activity [8]: stronger anti-cancer activity than celecoxib itself

CC(C)NCC(O)c1ccc(O)c(O)c1 (stereo not shown) [isoproterenol]
effect on KCNQ currents at −20 mV holding voltage ([2]; rat ASMCs, 100 nM): ineffective in enhancement of KCNQ currents

CS(=O)(=O)c1ccc(C2=C(c3ccccc3)C(=O)OC2)cc1 [rofecoxib]
effect on vascular Kv7 channels [5]: does not exhibit either effect | risk of cardiovascular (CV) events [6]: significantly increased the risk of cardiovascular (CV) events | effect on vascular L-type Ca^2+ channels [7]: does not exhibit either effect

CCOC(=O)Nc1ccc(NCc2ccc(F)cc2)cc1N [retigabine]
effect on saline control animals [9]: no apparent effect | reduction of MeCh-induced airway constriction ([1]; 10 μM, 230 nM MeCh): about 31% | relaxation when applied alone ([1]; 10 μM, 230 nM MeCh): 45.7±4.9% | EC50 ([1]; Rattus norvegicus, read-out: EC50 of relaxation of pre-constricted airways): 3600 ± 300 nM | maximum relaxation ([1]; pre-constricted thirty minutes with 230 nM MeCh): 61±9%

zinc pyrithione
reduction of MeCh-induced airway constriction ([1]; 1 μM, 230 nM MeCh, relative to vehicle): 21% | bronchorelaxant action when XE991 is included [1]: suppressed or prevented | effect on KCNQ currents at −20 mV holding voltage ([2]; rat ASMCs, 100 nM): enhanced | threshold of KCNQ channel activation ([2]; voltage step protocol, retigabine 10 μM, ZnPyr 100 nM): shifted the threshold of channel activation to more negative voltages

Cc1ccc(-c2cc(C(F)(F)F)nn2-c2ccc(S(N)(=O)=O)cc2)cc1 [celecoxib]
risk of cardiovascular (CV) events [6]: failed to demonstrate an increased CV risk

NCCc1c[nH]cn1 [histamine]
effect on ASMC Kv7 currents ([4]; 30 μM): significantly suppressed

O=C1N(c2ccccc2)c2ccccc2C1(Cc1ccncc1)Cc1ccncc1 [linopirdine]
effect on ASMC Kv7 currents ([4]; celecoxib 10 μM at −20 mV): complete suppression | mean arterial pressure (MAP) [10]: opposite effects | mesenteric vascular resistance (MVR) [10]: opposite effects

CCOC(=O)Nc1ccc(NCc2ccc(F)cc2)nc1N [flupirtine]
increase of vascular Kv7 current ([5]; 10 μM): 100% | plasma concentration achieved clinically [11]: about 12 μM
